# Tested on: patients with refractory metastatic colorectal cancer (mCRC)
# Experiment: PFS, OS and disease control in the testing (validation) cohort of refractory mCRC patients receiving TAS-102 (n=129, Italy), by baseline characteristics, SNP genotype and toxicity
# Format: in vivo, human
# Details: for HR OS (95% CI) / HR PFS (95% CI): ATM rs609429 Any G vs C/C (Ref.)
# Procedure: All patients underwent the treatment in salvage-line setting. […]
# Genomic DNA was extracted from peripheral whole blood in patients of all cohorts using the QIAmp Kit (Qiagen, Valencia, Calif., USA) according to the manufacturer's protocol (www.qiagen.com). The candidate SNPs were genotyped using PCR-based direct DNA sequence analysis by ABI 3100A Capillary Genetic Analyzer and Sequencing Scanner v1.0 (Applied Biosystems). Amplification of extracted DNA was carried out using both forward and reverse primers for each gene polymorphism as shown in Table 1. […] The investigators analyzing SNPs were blinded to the clinical data of the study patients.
# The primary endpoint in this study was progression-free survival (PFS), and the secondary endpoints were overall survival (OS) and disease control rate (DCR). PFS was calculated from the date of starting treatment to the first observation of disease progression or death from any cause. If a patient had no disease progression or death, PFS was censored at the date of last follow up. OS was calculated from the date of starting treatment until the date of death from any cause or the date of the last follow-up, at which point OS was censored. The disease control rate (DCR) was defined as the proportion of patients who achieved a stable disease (SD) or […] according to RECISTv1.1. Chi-square test was used to examine the difference in baseline patient characteristics among the three cohorts. Allelic distribution of all SNPs by ethnicity for deviation from Hardy-Weinberg equilibrium and the allelic frequencies of SNPs were tested using the Chi-square tests with one degree of freedom. The associations between candidate SNPs and disease control, and toxicities were examined using contingency tables and Fisher's exact test. The associations of SNPs with PFS and OS were analysed using Kaplan-Meier curves and the log-rank test. Because the true mode of inheritance of candidate SNPs was not established yet, a codominant or dominant genetic model if appropriate was considered.
# All patients underwent the treatment in salvage-line setting. […] In all patients, adverse events were graded according to the Common Terminology Criteria for Adverse Events, version 4.0. […]
# Genomic DNA was extracted from peripheral whole blood in patients of all cohorts using the QIAmp Kit (Qiagen, Valencia, Calif., USA) according to the manufacturer's protocol (www.qiagen.com). The candidate SNPs were tested using PCR-based direct DNA sequence analysis by ABI 3100A Capillary Genetic Analyzer and Sequencing Scanner v1.0 (Applied Biosystems). […] The investigators analyzing SNPs were blinded to the clinical data.
# The primary endpoint in this study was progression-free survival (PFS), and the secondary endpoints were overall survival (OS) and disease control rate (DCR).
# [1] = testing cohort, hENT1 rs750370 A/A
# [2] = testing cohort, hENT1 rs750370 A/G
# [3] = testing cohort, hENT1 rs750370 A/G vs A/A
# [4] = testing cohort, hENT1 rs750370 Any G
# [5] = testing cohort, hENT1 rs750370 Any G vs A/A
# [6] = testing cohort, hENT1 rs750370 G/G
# [7] = testing cohort, hENT1 rs750370 G/G vs A/A
# [8] = testing cohort, hENT1 rs760370, multivariable adjusted for age group, liver metastasis, ECOG, previous anti-EGFR
# [9] = testing cohort, hENT1 rs760370 A/A
# [10] = testing cohort, hENT1 rs760370 any G allele
# [11] = testing cohort, hENT1 rs760370 any G vs A/A, univariate
# [12] = testing cohort, hENT1 rs9394992 Any T
# [13] = testing cohort, hENT1 rs9394992 Any T vs C/C
# [14] = testing cohort, hENT1 rs9394992 C/C
# [15] = testing cohort, hENT1 rs9394992 C/T
# [16] = testing cohort, hENT1 rs9394992 C/T vs C/C
# [17] = testing cohort, hENT1 rs9394992 T/T
# [18] = testing cohort, hENT1 rs9394992 T/T vs C/C
# [19] = testing cohort, hENT1370_OCT019 Excellent
# [20] = testing cohort, hENT1370_OCT019 Fair
# [21] = testing cohort, hENT1370_OCT019 Fair vs Poor
# [22] = testing cohort, hENT1370_OCT019 Good
# [23] = testing cohort, hENT1370_OCT019 Good and Excellent combined
# [24] = testing cohort, hENT1370_OCT019 Good and Excellent combined vs Poor
# [25] = testing cohort, hENT1370_OCT019 Poor
# [26] = testing/validation cohort, grade 3≤ neutropenia
# [27] = testing/validation cohort, grade 3≤ neutropenia vs less than grade 3
# [28] = testing/validation cohort, neutropenia less than grade 3
# [29] = validation cohort, ATM rs609429 Any G
# [30] = validation cohort, multivariable
# [31] = validation cohort, ATM rs609429 C/C
substance,measurement,setting,value
Trifluridine/tipiracil [TAS-102],Disease Control Rate SD,[1],9 (20%)
same,"Overall Survival Median, months (95% CI)",[1],"3.9 (3.3, 5.5) months"
same,"Progression-free Survival Median, months (95% CI)",[1],"1.9 (1.7, 2.0) months"
same,Disease Control Rate PD,[2],42 (66%)
same,Disease Control Rate SD,[2],22 (34%)
same,"Progression-free Survival Median, months (95% CI)",[2],"2.1 (1.9, 2.5) months"
same,Overall Survival HR (95% CI) multivariate,[3],"0.50 (0.28, 0.89)"
same,Overall Survival HR (95% CI) univariate,[3],"0.48 (0.27, 0.85)"
same,Progression-free Survival HR (95% CI) multivariate,[3],"0.58 (0.37, 0.89)"
same,Progression-free Survival HR (95% CI) univariate,[3],"0.59 (0.38, 0.90)"
same,Disease Control Rate PD,[4],55 (66%)
same,Disease Control Rate SD,[4],28 (34%)
same,"Overall Survival Median, months (95% CI)",[4],"9.0 (5.1, 9.0+) months"
same,"Progression-free Survival Median, months (95% CI)",[4],"2.1 (1.9, 2.4) months"
same,Overall Survival HR (95% CI) multivariate,[5],"0.54 (0.31, 0.93)"
same,Overall Survival HR (95% CI) univariate,[5],"0.50 (0.29, 0.86)"
same,Progression-free Survival HR (95% CI) multivariate,[5],"0.65 (0.43, 0.98)"
same,Progression-free Survival HR (95% CI) univariate,[5],"0.64 (0.43, 0.95)"
same,Disease Control Rate PD,[6],13 (68%)
same,Disease Control Rate SD,[6],6 (32%)
same,"Overall Survival Median, months (95% CI)",[6],"9.0 (2.9, 9.0+) months"
same,"Progression-free Survival Median, months (95% CI)",[6],"2.0 (1.6, 2.5) months"
same,Overall Survival HR (95% CI) multivariate,[7],"0.78 (0.31, 1.99)"
same,Overall Survival HR (95% CI) univariate,[7],"0.58 (0.24, 1.41)"
same,Progression-free Survival HR (95% CI) multivariate,[7],"1.00 (0.55, 1.80)"
same,Progression-free Survival HR (95% CI) univariate,[7],"0.86 (0.48, 1.55)"
same,HR for OS,[8],0.54
same,HR for PFS,[8],0.65
same,OS,[9],3.9 months
same,PFS,[9],1.9 months
same,OS,[10],9.0 months
same,PFS,[10],2.1 months
same,HR for OS,[11],0.50
same,HR for PFS,[11],0.64
same,Disease Control Rate PD,[12],50 (71%)
same,Disease Control Rate SD,[12],20 (29%)
same,"Overall Survival Median, months (95% CI)",[12],"5.2 (3.7, 9.0+) months"
same,"Progression-free Survival Median, months (95% CI)",[12],"2.0 (1.9, 2.4) months"
same,Overall Survival HR (95% CI) multivariate,[13],"1.19 (0.69, 2.07)"
same,Overall Survival HR (95% CI) univariate,[13],"1.31 (0.76, 2.27)"
same,Progression-free Survival HR (95% CI) multivariate,[13],"0.81 (0.54, 1.19)"
same,Progression-free Survival HR (95% CI) univariate,[13],"0.92 (0.62, 1.35)"
same,Disease Control Rate PD,[14],41 (71%)
same,Disease Control Rate SD,[14],17 (29%)
same,"Overall Survival Median, months (95% CI)",[14],"5.8 (4.7, 8.8+) months"
same,"Progression-free Survival Median, months (95% CI)",[14],"2.0 (1.9, 2.1) months"
same,Disease Control Rate PD,[15],41 (71%)
same,Disease Control Rate SD,[15],17 (29%)
same,"Overall Survival Median, months (95% CI)",[15],"4.4 (3.6, 9.0+) months"
same,"Progression-free Survival Median, months (95% CI)",[15],"2.0 (1.8, 2.3) months"
same,Overall Survival HR (95% CI) multivariate,[16],"1.23 (0.69, 2.18)"
same,Overall Survival HR (95% CI) univariate,[16],"1.38 (0.78, 2.43)"
same,Progression-free Survival HR (95% CI) multivariate,[16],"0.81 (0.54, 1.22)"
same,Progression-free Survival HR (95% CI) univariate,[16],"0.92 (0.61, 1.38)"
same,Disease Control Rate PD,[17],9 (75%)
same,Disease Control Rate SD,[17],3 (25%)
same,"Progression-free Survival Median, months (95% CI)",[17],"2.5 (0.4, 3.9) months"
same,Overall Survival HR (95% CI) multivariate,[18],"1.02 (0.38, 2.71)"
same,Overall Survival HR (95% CI) univariate,[18],"1.06 (0.40, 2.79)"
same,Progression-free Survival HR (95% CI) multivariate,[18],"0.79 (0.39, 1.58)"
same,Progression-free Survival HR (95% CI) univariate,[18],"0.90 (0.45, 1.78)"
same,Disease Control Rate PD,[19],38 (64%)
same,Disease Control Rate SD,[19],21 (36%)
same,Disease Control Rate PD,[20],25 (81%)
same,Disease Control Rate SD,[20],6 (19%)
same,"Overall Survival Median, months (95% CI)",[20],"4.0 (3.1, 8.8) months"
same,"Progression-free Survival Median, months (95% CI)",[20],"1.9 (1.6, 2.0) months"
same,Overall Survival HR (95% CI) multivariate,[21],"0.58 (0.25, 1.37)"
same,Overall Survival HR (95% CI) univariate,[21],"0.77 (0.34, 1.75)"
same,Progression-free Survival HR (95% CI) multivariate,[21],"1.13 (0.57, 2.24)"
same,Progression-free Survival HR (95% CI) univariate,[21],"1.24 (0.64, 2.40)"
same,Disease Control Rate PD,[22],17 (71%)
same,Disease Control Rate SD,[22],7 (29%)
same,"Overall Survival Median, months (95% CI)",[23],"9.0 (5.1, 9.0) months"
same,"Progression-free Survival Median, months (95% CI)",[23],"2.1 (1.9, 2.4) months"
same,Overall Survival HR (95% CI) multivariate,[24],"0.37 (0.17, 0.80)"
same,Overall Survival HR (95% CI) univariate,[24],"0.42 (0.20, 0.90)"
same,Progression-free Survival HR (95% CI) multivariate,[24],"0.71 (0.38, 1.30)"
same,Progression-free Survival HR (95% CI) univariate,[24],"0.73 (0.40, 1.34)"
same,Disease Control Rate PD,[25],11 (79%)
same,Disease Control Rate SD,[25],3 (21%)
same,"Overall Survival Median, months (95% CI)",[25],"3.6 (2.3, 8.5) months"
same,"Progression-free Survival Median, months (95% CI)",[25],"2.0 (1.7, 2.4) months"
same,"Progression-free Survival Median, months (95% CI)","testing cohort, per OCT2 rs316000 genotype (row), OCT2 rs316000 A/A genotype","2.0 (1.9, 2.1) months"
same,"Progression-free Survival Median, months (95% CI)","testing cohort, per OCT2 rs316000 genotype (row), OCT2 rs316000 A/G genotype","1.9 (1.7, 2.4) months"
same,"Progression-free Survival Median, months (95% CI)","testing cohort, per OCT2 rs316000 genotype (row), OCT2 rs316000 Any G genotype","1.9 (1.8, 2.6) months"
same,"Progression-free Survival Median, months (95% CI)","testing cohort, per OCT2 rs316000 genotype (row), OCT2 rs316000 G/G genotype","3.7 (1.7, 6.8+) months"
same,OS,[26],8.8 months
same,PFS,[26],2.3 months
same,HR for OS,[27],0.21
same,HR for PFS,[27],0.50
same,OS,[28],3.7 months
same,PFS,[28],1.9 months
same,"Disease Control CR/PR/SD, patients n (%)",[29],26 (33%)
same,Median PFS (95% CI),[29],"2.0 (1.9, 2.3) months"
same,"PD, patients n (%)",[29],52 (67%)
same,HR OS (95% CI),[30],"0.80 (0.45, 1.41)"
same,HR PFS (95% CI),[30],"0.85 (0.56, 1.29)"
same,HR OS (95% CI),"validation cohort, univariate","0.73 (0.43, 1.25)"
same,HR PFS (95% CI),"validation cohort, univariate","0.78 (0.52, 1.16)"
same,"Disease Control CR/PR/SD, patients n (%)",[31],11 (22%)
same,Median OS (95% CI),[31],"4.4 (3.7, 9.0+) months"
same,Median PFS (95% CI),[31],"1.9 (1.8, 2.3) months"
same,OS,[31],4.4 months
same,"PD, patients n (%)",[31],39 (78%)
same,PFS,[31],1.9 months

# Reference: patent US20190233884A1 (University of Southern California, priority 2016, published 2019)
